Data: US8703768B2, “Nitrogen containing heteroaryl compounds” (Hoffmann-La Roche Inc., priority 2010, dated 2014)

Each compound was assayed against human PDE10A (Homo sapiens (Human), UniProt Q9Y233) (assay: human PDE10A full length Scintillation Proximity Assay (SPA)). Settings: 50 nM cGMP and 50 nM [3H]-cGMP, 20 minutes at room temperature; read-out: PDE10A inhibition IC50.
Format: biochemical
How it was run: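 Full-length enzyme incubated with compounds; reaction started with cGMP plus [^3H]-cGMP substrate and run 20 min at room temperature. Stopped with yttrium silicate SPA beads in 18 mM zinc sulphate, 1 h shaking, then scintillation counting; background from enzyme-free wells.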

Sequence of human PDE10A (Q9Y233 other isoform, or with tags, fused parts or gaps): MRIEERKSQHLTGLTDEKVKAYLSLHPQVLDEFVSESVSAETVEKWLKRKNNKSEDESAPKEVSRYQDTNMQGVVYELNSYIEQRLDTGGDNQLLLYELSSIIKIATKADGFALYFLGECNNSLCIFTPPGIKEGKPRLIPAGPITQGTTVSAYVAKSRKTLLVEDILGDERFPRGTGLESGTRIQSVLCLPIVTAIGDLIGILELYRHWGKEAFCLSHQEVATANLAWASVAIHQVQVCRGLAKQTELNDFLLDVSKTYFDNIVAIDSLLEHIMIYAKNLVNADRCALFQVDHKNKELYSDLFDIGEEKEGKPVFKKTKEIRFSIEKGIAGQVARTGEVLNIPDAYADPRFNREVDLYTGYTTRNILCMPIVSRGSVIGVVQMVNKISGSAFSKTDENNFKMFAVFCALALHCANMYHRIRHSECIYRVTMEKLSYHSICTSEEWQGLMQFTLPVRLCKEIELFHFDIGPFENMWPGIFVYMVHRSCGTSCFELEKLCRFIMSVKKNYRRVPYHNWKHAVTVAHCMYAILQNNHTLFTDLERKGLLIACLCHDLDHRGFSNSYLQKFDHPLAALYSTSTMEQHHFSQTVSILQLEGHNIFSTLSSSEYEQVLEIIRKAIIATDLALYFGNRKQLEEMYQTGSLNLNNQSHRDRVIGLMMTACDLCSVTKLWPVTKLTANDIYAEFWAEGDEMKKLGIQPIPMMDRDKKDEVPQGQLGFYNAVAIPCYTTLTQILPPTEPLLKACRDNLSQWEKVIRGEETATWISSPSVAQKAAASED

Compared with `CN(CCCO)C(=O)c1ccncc1NC(=O)c1nc(C2CC2)ccc1Nc1cncnc1` [Example 71, 6-Cyclopropyl-3-(pyrimidin-5-ylamino)-pyridine-2-carboxylic acid {4-[(3-hydroxy-propyl)-methyl-carbamoyl]-pyridin-3-yl}-amide], `CN(CC(O)CO)C(=O)c1ccncc1NC(=O)c1nc(C2CC2)ccc1Nc1cncnc1` (centres unmarked) [Example 86, 6-Cyclopropyl-3-(pyrimidin-5-ylamino)-pyridine-2-carboxylic acid {4-[(2,3-dihydroxy-propyl)-methyl-carbamoyl]-pyridin-3-yl}-amide] is 3.8-fold higher in IC50: 56.4 nM for the first, 215 nM for the second.

`CNC(=O)c1nn(CCC(F)(F)F)cc1NC(=O)c1nc(C2CC2)ccc1Nc1cncnc1` [Example 9, 6-Cyclopropyl-3-(pyrimidin-5-ylamino)-pyridine-2-carboxylic acid [3-methylcarbamoyl-1-(3,3,3-trifluoro-propyl)-1H-pyrazol-4-yl]-amide] and `CNC(=O)c1nn(CC(F)(F)F)cc1NC(=O)c1nc(C2CC2)ccc1Nc1cncnc1` [Example 8, 6-Cyclopropyl-3-(pyrimidin-5-ylamino)-pyridine-2-carboxylic acid [3-methylcarbamoyl-1-(2,2,2-trifluoro-ethyl)-1H-pyrazol-4-yl]-amide] are within 1.5-fold of each other in IC50: 149 nM for the first, 140 nM for the second.

`CC(C)c1ncc(Nc2cncnc2)c(C(=O)Nc2cccnc2C(=O)NCC(C)(C)O)n1` [Example 329, 2-Isopropyl-5-(pyrimidin-5-ylamino)-pyrimidine-4-carboxylic acid [2-(2-hydroxy-2-methyl-propylcarbamoyl)-pyridin-3-yl]-amide] and `CC(C)Cc1ncc(Nc2cncnc2)c(C(=O)Nc2cccnc2C(=O)NCC(C)(C)O)n1` [Example 331, 2-Isobutyl-5-(pyrimidin-5-ylamino)-pyrimidine-4-carboxylic acid [2-(2-hydroxy-2-methyl-propylcarbamoyl)-pyridin-3-yl]-amide] are within 1.5-fold of each other in IC50: 2.9 nM for the first, 3.1 nM for the second.

Going from `CNC(=O)c1cccc(F)c1NC(=O)c1nc(C2CC2)cnc1Nc1cncnc1` [Example 290, 6-Cyclopropyl-3-(pyrimidin-5-ylamino)-pyrazine-2-carboxylic acid (2-fluoro-6-methylcarbamoyl-phenyl)-amide] to `CN(C)C(=O)c1c(F)cccc1NC(=O)c1nc(C2CC2)cnc1Nc1cncnc1` [Example 308, 6-Cyclopropyl-3-(pyrimidin-5-ylamino)-pyrazine-2-carboxylic acid (2-dimethylcarbamoyl-3-fluoro-phenyl)-amide], the IC50 falls from 2.8 nM to 0.9 nM (3.1-fold).

First: CCN(CC)C(=O)c1c(NC(=O)c2nc(C3CC3)cnc2Nc2cncnc2)cnn1C [Example 228, 6-Cyclopropyl-3-(pyrimidin-5-ylamino)-pyrazine-2-carboxylic acid (5-diethylcarbamoyl-1-methyl-1H-pyrazol-4-yl)-amide]
Second: CC(C)CNC(=O)c1c(NC(=O)c2nc(C3CC3)cnc2Nc2cncnc2)cnn1C [Example 167, 6-Cyclopropyl-3-(pyrimidin-5-ylamino)-pyrazine-2-carboxylic acid (5-isobutylcarbamoyl-1-methyl-1H-pyrazol-4-yl)-amide]
The IC50 of the first is 8.6-fold higher: 38 nM for the first, 4.4 nM for the second. The second is the more potent here.

Going from `CNC(=O)c1nc(C2CCCO2)ccc1NC(=O)c1nc(C2CC2)cnc1Nc1cncnc1` (centres unmarked) [Example 177, 6-Cyclopropyl-3-(pyrimidin-5-ylamino)-pyrazine-2-carboxylic acid [2-methylcarbamoyl-6-(tetrahydro-furan-2-yl)-pyridin-3-yl]-amide] to `O=C(Nc1ccc(C2CC2)nc1C(=O)N1CCC1)c1nc(C2CC2)cnc1Nc1cncnc1` [Example 272, 6-Cyclopropyl-3-(pyrimidin-5-ylamino)-pyrazine-2-carboxylic acid [2-(azetidine-1-carbonyl)-6-cyclopropyl-pyridin-3-yl]-amide], the IC50 rises from 0.2 nM to 8.5 nM (42-fold).

First: Cn1ncc(NC(=O)c2nc(C3CC3)cnc2Nc2cncnc2)c1C(=O)NCC(F)(F)F [Example 144, 6-Cyclopropyl-3-(pyrimidin-5-ylamino)-pyrazine-2-carboxylic acid [1-methyl-5-(2,2,2-trifluoro-ethylcarbamoyl)-1H-pyrazol-4-yl]-amide]
Second: CC(NC(=O)c1c(NC(=O)c2nc(C3CC3)cnc2Nc2cncnc2)cnn1C)C(F)(F)F (centres unmarked) [Example 164, 6-Cyclopropyl-3-(pyrimidin-5-ylamino)-pyrazine-2-carboxylic acid [1-methyl-5-(2,2,2-trifluoro-1-methyl-ethylcarbamoyl)-1H-pyrazol-4-yl]-amide]
The IC50 of the first is 2.5-fold lower: 2.1 nM for the first, 5.2 nM for the second.

Going from `O=C(NC1CCCC1)c1ccncc1NC(=O)c1nc(C2CC2)ccc1Nc1cncnc1` [Example 61, 6-Cyclopropyl-3-(pyrimidin-5-ylamino)-pyridine-2-carboxylic acid (4-cyclopentylcarbamoyl-pyridin-3-yl)-amide] to `O=C(NCCO)c1ccncc1NC(=O)c1nc(C2CC2)ccc1Nc1cncnc1` [Example 68, 6-Cyclopropyl-3-(pyrimidin-5-ylamino)-pyridine-2-carboxylic acid [4-(2-hydroxy-ethylcarbamoyl)-pyridin-3-yl]-amide], the IC50 rises from 1.3 nM to 3.3 nM (2.5-fold).

`CCN(C)C(=O)c1ncccc1NC(=O)c1nc(C2CC2)cnc1Nc1cncnc1` [Example 199, 6-Cyclopropyl-3-(pyrimidin-5-ylamino)-pyrazine-2-carboxylic acid [2-(ethyl-methyl-carbamoyl)-pyridin-3-yl]-amide] and `CC(C)NC(=O)c1ncccc1NC(=O)c1nc(C2CC2)cnc1Nc1cncnc1` [Example 221, 6-Cyclopropyl-3-(pyrimidin-5-ylamino)-pyrazine-2-carboxylic acid (2-isopropylcarbamoyl-pyridin-3-yl)-amide] are within 1.5-fold of each other in IC50: 6.2 nM for the first, 4.9 nM for the second.

First: CNC(=O)c1c(NC(=O)c2nc(C(C)O)cnc2Nc2cncnc2)cnn1C (centres unmarked) [Example 187, 6-(1-Hydroxy-ethyl)-3-(pyrimidin-5-ylamino)-pyrazine-2-carboxylic acid (1-methyl-5-methylcarbamoyl-1H-pyrazol-4-yl)-amide]
Second: Cn1ncc(NC(=O)c2nc(C3CC3)cnc2Nc2cncnc2)c1C(=O)NCCC(C)(C)O [Example 140, 6-Cyclopropyl-3-(pyrimidin-5-ylamino)-pyrazine-2-carboxylic acid [5-(3-hydroxy-3-methyl-butylcarbamoyl)-1-methyl-1H-pyrazol-4-yl]-amide]
The IC50 of the first is 21-fold higher: 63.8 nM for the first, 3 nM for the second. The second is the more potent here.

Going from `Cc1ccc(NC(=O)c2nc(C3CC3)cnc2Nc2cncnc2)c(C(=O)N2CCC2)n1` [Example 278, 6-Cyclopropyl-3-(pyrimidin-5-ylamino)-pyrazine-2-carboxylic acid [2-(azetidine-1-carbonyl)-6-methyl-pyridin-3-yl]-amide] to `O=C(Nc1cccnc1C(=O)N1CCC1)c1nc(C2CC2)cnc1Nc1cncnc1` [Example 194, 6-Cyclopropyl-3-(pyrimidin-5-ylamino)-pyrazine-2-carboxylic acid [2-(azetidine-1-carbonyl)-pyridin-3-yl]-amide], the IC50 rises from 1.9 nM to 5.5 nM (2.9-fold). The first is the more potent here.

`Cn1cc(NC(=O)c2nc(C3CC3)ccc2Nc2cncnc2)c(C(=O)NC2CCC2)n1` [Example 33, 6-Cyclopropyl-3-(pyrimidin-5-ylamino)-pyridine-2-carboxylic acid (3-cyclobutylcarbamoyl-1-methyl-1H-pyrazol-4-yl)-amide] and `CNC(=O)c1nn(C)cc1NC(=O)c1nc(C2CC2)ccc1Nc1cncnc1` [Example 2, 6-Cyclopropyl-3-(pyrimidin-5-ylamino)-pyridine-2-carboxylic acid (1-methyl-3-methylcarbamoyl-1H-pyrazol-4-yl)-amide] are within 1.5-fold of each other in IC50: 3.1 nM for the first, 4.6 nM for the second.

First: CNC(=O)c1nn(C)cc1NC(=O)c1nc(CC(C)C)ncc1Nc1cncnc1 [Example 83, 2-Isobutyl-5-(pyrimidin-5-ylamino)-pyrimidine-4-carboxylic acid (1-methyl-3-methylcarbamoyl-1H-pyrazol-4-yl)-amide]
Second: CNC(=O)c1c(NC(=O)c2nc(OCC(F)(F)F)ncc2Nc2cncnc2)cnn1C [Example 337, 5-(Pyrimidin-5-ylamino)-2-(2,2,2-trifluoro-ethoxy)-pyrimidine-4-carboxylic acid (1-methyl-5-methylcarbamoyl-1H-pyrazol-4-yl)-amide]
The IC50 of the first is 23-fold lower: 5.5 nM for the first, 126 nM for the second. The first is the more potent here.

Going from `Cn1ncc(NC(=O)c2nc(C3CC3)cnc2Nc2cncnc2)c1C(=O)N1CC(F)C1` [Example 174, 6-Cyclopropyl-3-(pyrimidin-5-ylamino)-pyrazine-2-carboxylic acid [5-(3-fluoro-azetidine-1-carbonyl)-1-methyl-1H-pyrazol-4-yl]-amide] to `Cn1ncc(NC(=O)c2nc(C3CC3)cnc2Nc2cncnc2)c1C(=O)NC[C@@H]1CCCO1` [Example 255, 6-Cyclopropyl-3-(pyrimidin-5-ylamino)-pyrazine-2-carboxylic acid (1-methyl-5-{[(S)-1-(tetrahydro-furan-2-yl)methyl]-carbamoyl}-1H-pyrazol-4-yl)-amide], the IC50 falls from 14.8 nM to 2.9 nM (5.1-fold).

Going from `O=C(NC1CC1)c1ccsc1NC(=O)c1nc(C2CC2)ccc1Nc1cncnc1` [Example 89, 6-Cyclopropyl-3-(pyrimidin-5-ylamino)-pyridine-2-carboxylic acid (3-cyclopropylcarbamoyl-thiophen-2-yl)-amide] to `CC1CCCN1C(=O)c1nn(C)cc1NC(=O)c1nc(C2CC2)ccc1Nc1cncnc1` (centres unmarked) [Example 27, 6-Cyclopropyl-3-(pyrimidin-5-ylamino)-pyridine-2-carboxylic acid [1-methyl-3-(2-methyl-pyrrolidine-1-carbonyl)-1H-pyrazol-4-yl]-amide], the IC50 rises from 0.5 nM to 11.4 nM (23-fold). The first is the more potent here.

`CN(C)C(=O)c1ccc(F)cc1NC(=O)c1nc(C2CC2)cnc1Nc1cncnc1` [Example 294, 6-Cyclopropyl-3-(pyrimidin-5-ylamino)-pyrazine-2-carboxylic acid (2-dimethylcarbamoyl-5-fluoro-phenyl)-amide] and `O=C(Nc1ccc(F)c(F)c1C(=O)N1CCC1)c1nc(C2CC2)cnc1Nc1cncnc1` [Example 319, 6-Cyclopropyl-3-(pyrimidin-5-ylamino)-pyrazine-2-carboxylic acid [2-(azetidine-1-carbonyl)-3,4-difluoro-phenyl]-amide] are within 1.5-fold of each other in IC50: 19.3 nM for the first, 15.5 nM for the second.
